Assay results: US6933304B2, “Heteroarylalkanoic acids as integrin receptor antagonists” (Pharmacia Corporation, priority 2000, dated 2005)

How the values were obtained:
[1] = molecular target: T1, αVβ3 integrin (293-β3 cells) (Homo sapiens, UniProt P05106+P06756); assay: 293-β3 cell adhesion assay (adhesion to immobilized vitronectin); assay type: cell-based; details: 200 uM Mn2+, read-out: 293-β3 (IC50 <10 μM)
T1 construct: expressed in transfected cells; host or cells: 293 human embryonic kidney cells (293-β3)
Text: While the β3 subunit of αVβ3 is only known to complex with αV or αIIb, the αV subunit complexes with multiple β subunits. The three αV integrins most homologous with αVβ3 are αVβ1, αVβ5 and αVβ6, with 43%, 56% and 47% amino acid identity in the β subunits, respectively. To evaluate the selectivity of compounds between the integrins αVβ3 and αVβ6, cell-based assays were established using the 293 human embryonic kidney cell line. 293 cells express αVβ1, but little to no detectable αVβ3 or αVβ6. cDNAs for β3 and β6 were transfected separately into 293 cells to generate 293-β3 and 293-β6 cells, respectively. High surface expression of αVβ3 and αVβ6 was confirmed by flow cytometry. Conditions were established for each cell line in which cell adhesion to immobilized human vitronectin was mediated by the appropriate integrin, as determined by a panel of integrin-specific, neutralizing monoclonal antibodies. Briefly, cells were incubated with inhibitor in the presence of 200 uM Mn^2+, allowed to adhere to immobilized vitronectin, washed, and adherent cells are detected endogenous alkaline phosphatase and para-nitrophenyl phosphate. An 8-point dose-response curve using either 10-fold or 3-fold dilutions of compound was evaluated by fitting a four-parameter logistic, nonlinear model (using SAS).

[2] = molecular target: T2, αVβ6 (HT-29 human colon carcinoma cells) (Homo sapiens, UniProt P06756+P18564); assay: HT-29 cell adhesion assay (adhesion to immobilized LAP); assay type: cell-based; details: selectivity ratio: IC50 αVβ6 (HT-29) over IC50 β3
T2 construct: endogenous in cells; host or cells: HT-29 human colon carcinoma cells
Description: To evaluate compound potency for membrane-bound αVβ6 an additional cell-based adhesion assay was established using the HT-29 human colon carcinoma cell line. High surface expression of αVβ6 on HT-29 cells was confirmed by flow cytometry. Conditions were established in which cell adhesion to immobilized human latency associated peptide (LAP) was mediated by the αVβ6, as determined by a panel of integrin-specific, neutralizing monoclonal antibodies. Briefly, cells were incubated with inhibitor in the presence of 200 uM Mn^2+, allowed to adhere to immobilized LAP, washed, and adherent cells are detected by quantifying endogenous alkaline phosphatase using para-nitrophenyl phosphate. An 8-point dose-response curve using either 10-fold or 3-fold dilutions of compound was evaluated by fitting a four-parameter logistic, nonlinear model (using SAS). The compounds evaluated were relatively ineffective at inhibition of αVβ6-mediated cell adhesion. The selective antagonism of the αVβ3 integrin is viewed as desirable in this class of compounds, as αVβ6 may also play a role in normal physiological processes of tissue repair and cellular turnover that routinely occur in the skin and pulmonary tissues.

[3] = molecular target: T3, Human fibrinogen receptor (IIb/IIIa) (Homo sapiens, UniProt P05106+P08514); assay: Purified IIb/IIIa receptor assay (solid phase receptor assay, SPRA); assay type: binding; details: selectivity ratio: IC50 αIIbβ3 (solid phase receptor assay) over IC50 β3
T3 construct: Human fibrinogen receptor (IIb/IIIa) was purified from outdated platelets; from tissue; host or cells: outdated human platelets
Text: Human fibrinogen receptor (IIb/IIIa) was purified from outdated platelets. (Pytela, R., Pierschbacher, M. D., Argraves, S., Suzuki, S., and Rouslahti, E. “Arginine-Glycine-Aspartic acid adhesion receptors”, Methods in Enzymology 144(1987):475-489.) Human vitronectin was purified from fresh frozen plasma as described in Yatohgo, T., Izumi, M., Kashiwagi, H., and Hayashi, M., “Novel purification of vitronectin from human plasma by heparin affinity chromatography,” Cell Structure and Function 13(1988):281-292. Biotinylated human vitronectin was prepared by coupling NHS-biotin from Pierce Chemical Company (Rockford, IL) to purified vitronectin as previously described. (Charo, I. F., Nannizzi, L., Phillips, D. R., Hsu, M. A., Scarborough, R. M., “Inhibition of fibrinogen binding to GP IIb/IIIa by a GP IIIa peptide”, J. Biol. Chem. 266(3)(1991): 1415-1421.) Assay buffer, OPD substrate tablets, and RIA grade BSA were obtained from Sigma (St. Louis, Mo.). Anti-biotin antibody was obtained from Sigma (St. Louis, Mo.). Nalge Nunc-Immuno microtiter plates were obtained from (Rochester, N.Y.). ADP reagent was obtained from Sigma (St. Louis, Mo.).
This assay is essentially the same reported in Niiya, K., Hodson, E., Bader, R., Byers-Ward, V. Koziol, J. A., Plow, E. F. and Ruggeri, Z. M., “Increased surface expression of the membrane glycoprotein IIb/IIIa complex induced by platelet activation: Relationships to the binding of fibrinogen and platelet aggregation”, Blood 70(1987):475-483. The purified human fibrinogen receptor (IIb/IIIa) was diluted from stock solutions to 1.0 μg/mL in Tris-buffered saline containing 1.0 mM Ca^++, Mg^++, and Mn^++, pH 7.4 (TBS^+++). The diluted receptor was immediately transferred to Nalge Nunc-Immuno microtiter plates at 100 μL/well (100 ng receptor/well). The plates were sealed and incubated overnight at 4° C. to allow the receptors to bind to the wells. All remaining steps were at room temperature. The assay plates were emptied and 200 μL of 1% RIA grade BSA in TBS^+++ (TBS^+++/BSA) were added to block exposed plastic surfaces. Following a 2 hour incubation, the assay plates were washed with TBS^+++ using a 96 well plate washer. Logarithmic serial dilution of the test compound and controls were made starting at a stock concentration of […] and using 2 nM biotinylated vitronectin in TBS^+++/BSA as the diluent. This premixing of labeled ligand with test (or control) ligand, and subsequent transfer of 50 μL aliquots to the assay plate was carried out with a CETUS Propette robot; the final concentration of the labeled ligand was 1 nM and the highest concentration of test compound was 1.0×10^−4 M. The competition occurred for two hours after which all wells were washed with a plate washer as before. Affinity purified horseradish peroxidase labeled goat anti-biotin antibody was diluted 1:2000 in TBS^+++/BSA and 125 μL were added to each well. After 45 minutes, the plates were washed and incubated with […] substrate in 100 mM/L citrate buffer, pH 5.0. The plate was read with a microtiter plate reader at a wavelength of 450 nm and when the maximum-binding control wells reached an absorbance of about 1.0, the final A450 were recorded for analysis. The data were analyzed using a macro written for use with the EXCELJ spreadsheet program. The mean, standard deviation, and %CV were determined for duplicate concentrations. The mean A450 values were normalized to the mean of four maximum-binding controls (no competitor added)(B-MAX). The normalized values were subjected to a four parameter curve fit algorithm, [Robard et al., Int.

T3 sequence (P08514 32-887 limits assumed): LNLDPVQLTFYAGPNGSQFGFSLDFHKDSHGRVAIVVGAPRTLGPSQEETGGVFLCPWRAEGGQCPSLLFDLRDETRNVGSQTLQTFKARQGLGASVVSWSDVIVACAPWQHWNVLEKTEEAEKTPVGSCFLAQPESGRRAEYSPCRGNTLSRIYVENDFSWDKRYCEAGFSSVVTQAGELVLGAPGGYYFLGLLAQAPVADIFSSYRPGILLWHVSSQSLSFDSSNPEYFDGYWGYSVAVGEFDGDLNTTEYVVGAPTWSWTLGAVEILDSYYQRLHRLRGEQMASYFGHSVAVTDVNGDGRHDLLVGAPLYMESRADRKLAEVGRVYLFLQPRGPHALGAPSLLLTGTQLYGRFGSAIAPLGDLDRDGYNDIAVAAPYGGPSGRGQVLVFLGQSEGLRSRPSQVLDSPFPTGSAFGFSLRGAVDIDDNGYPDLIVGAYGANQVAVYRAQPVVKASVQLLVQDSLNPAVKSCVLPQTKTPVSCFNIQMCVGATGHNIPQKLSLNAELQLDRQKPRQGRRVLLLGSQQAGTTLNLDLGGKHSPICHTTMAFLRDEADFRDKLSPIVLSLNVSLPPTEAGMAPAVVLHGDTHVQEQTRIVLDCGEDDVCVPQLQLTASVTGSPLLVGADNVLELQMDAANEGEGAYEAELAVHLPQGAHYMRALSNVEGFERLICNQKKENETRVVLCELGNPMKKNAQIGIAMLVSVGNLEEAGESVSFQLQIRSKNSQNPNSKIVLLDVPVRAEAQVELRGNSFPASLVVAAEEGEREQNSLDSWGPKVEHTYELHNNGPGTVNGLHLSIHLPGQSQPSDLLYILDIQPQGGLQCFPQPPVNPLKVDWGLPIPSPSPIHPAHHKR
T3 sequence (P08514 891-1039 partner limits assumed): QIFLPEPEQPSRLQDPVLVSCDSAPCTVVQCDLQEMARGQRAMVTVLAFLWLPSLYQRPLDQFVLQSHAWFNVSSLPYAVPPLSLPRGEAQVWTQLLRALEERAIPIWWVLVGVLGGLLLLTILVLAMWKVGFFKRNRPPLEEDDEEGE
T3 sequence (P05106 27-788): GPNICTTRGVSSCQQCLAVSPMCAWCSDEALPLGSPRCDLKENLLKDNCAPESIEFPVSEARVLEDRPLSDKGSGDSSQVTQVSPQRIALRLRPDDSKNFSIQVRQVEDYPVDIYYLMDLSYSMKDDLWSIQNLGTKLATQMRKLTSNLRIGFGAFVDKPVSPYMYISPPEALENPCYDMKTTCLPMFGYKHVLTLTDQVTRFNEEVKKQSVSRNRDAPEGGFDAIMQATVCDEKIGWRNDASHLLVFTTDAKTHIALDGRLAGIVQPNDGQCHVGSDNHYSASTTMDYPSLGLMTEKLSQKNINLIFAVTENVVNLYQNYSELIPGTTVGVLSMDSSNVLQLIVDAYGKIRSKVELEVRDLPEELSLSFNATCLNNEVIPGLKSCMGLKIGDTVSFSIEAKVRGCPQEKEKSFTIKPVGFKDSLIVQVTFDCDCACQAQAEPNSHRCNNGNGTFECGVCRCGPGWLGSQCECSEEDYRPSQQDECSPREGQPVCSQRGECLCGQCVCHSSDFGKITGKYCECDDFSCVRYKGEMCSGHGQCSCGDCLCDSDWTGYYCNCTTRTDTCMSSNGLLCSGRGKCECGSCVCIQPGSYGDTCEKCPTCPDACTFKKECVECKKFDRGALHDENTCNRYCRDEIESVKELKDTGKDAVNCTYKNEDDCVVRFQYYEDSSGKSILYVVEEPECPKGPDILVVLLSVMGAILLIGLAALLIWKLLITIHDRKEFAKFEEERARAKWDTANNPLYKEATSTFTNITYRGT
T2 sequence (P06756 31-889 limits assumed): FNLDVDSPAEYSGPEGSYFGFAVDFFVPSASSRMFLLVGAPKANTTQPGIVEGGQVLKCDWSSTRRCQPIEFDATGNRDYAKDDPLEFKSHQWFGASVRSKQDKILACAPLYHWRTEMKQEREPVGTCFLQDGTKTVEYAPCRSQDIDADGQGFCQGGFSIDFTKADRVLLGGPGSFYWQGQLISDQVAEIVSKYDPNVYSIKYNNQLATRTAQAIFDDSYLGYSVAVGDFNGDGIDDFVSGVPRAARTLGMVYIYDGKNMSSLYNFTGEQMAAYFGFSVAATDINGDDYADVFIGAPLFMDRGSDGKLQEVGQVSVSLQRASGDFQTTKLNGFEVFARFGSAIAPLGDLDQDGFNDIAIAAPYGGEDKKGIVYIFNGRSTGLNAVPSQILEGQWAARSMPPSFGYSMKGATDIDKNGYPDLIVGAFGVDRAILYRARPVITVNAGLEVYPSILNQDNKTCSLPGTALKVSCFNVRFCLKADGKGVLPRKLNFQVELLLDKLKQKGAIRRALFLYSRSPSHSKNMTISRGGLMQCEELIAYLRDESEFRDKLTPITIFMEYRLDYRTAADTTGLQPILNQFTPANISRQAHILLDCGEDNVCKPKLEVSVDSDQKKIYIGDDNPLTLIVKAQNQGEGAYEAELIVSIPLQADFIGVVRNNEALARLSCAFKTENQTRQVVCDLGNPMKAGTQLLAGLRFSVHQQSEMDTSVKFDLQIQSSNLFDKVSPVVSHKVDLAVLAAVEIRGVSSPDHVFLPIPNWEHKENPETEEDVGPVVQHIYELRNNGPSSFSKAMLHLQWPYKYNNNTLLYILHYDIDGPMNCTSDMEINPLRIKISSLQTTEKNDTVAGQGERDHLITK
T2 sequence (P06756 891-1048 partner limits assumed): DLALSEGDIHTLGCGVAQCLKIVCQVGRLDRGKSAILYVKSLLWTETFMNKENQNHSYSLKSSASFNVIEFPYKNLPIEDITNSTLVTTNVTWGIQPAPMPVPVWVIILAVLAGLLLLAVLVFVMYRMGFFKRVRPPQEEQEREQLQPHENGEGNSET
T2 sequence (P18564 22-788): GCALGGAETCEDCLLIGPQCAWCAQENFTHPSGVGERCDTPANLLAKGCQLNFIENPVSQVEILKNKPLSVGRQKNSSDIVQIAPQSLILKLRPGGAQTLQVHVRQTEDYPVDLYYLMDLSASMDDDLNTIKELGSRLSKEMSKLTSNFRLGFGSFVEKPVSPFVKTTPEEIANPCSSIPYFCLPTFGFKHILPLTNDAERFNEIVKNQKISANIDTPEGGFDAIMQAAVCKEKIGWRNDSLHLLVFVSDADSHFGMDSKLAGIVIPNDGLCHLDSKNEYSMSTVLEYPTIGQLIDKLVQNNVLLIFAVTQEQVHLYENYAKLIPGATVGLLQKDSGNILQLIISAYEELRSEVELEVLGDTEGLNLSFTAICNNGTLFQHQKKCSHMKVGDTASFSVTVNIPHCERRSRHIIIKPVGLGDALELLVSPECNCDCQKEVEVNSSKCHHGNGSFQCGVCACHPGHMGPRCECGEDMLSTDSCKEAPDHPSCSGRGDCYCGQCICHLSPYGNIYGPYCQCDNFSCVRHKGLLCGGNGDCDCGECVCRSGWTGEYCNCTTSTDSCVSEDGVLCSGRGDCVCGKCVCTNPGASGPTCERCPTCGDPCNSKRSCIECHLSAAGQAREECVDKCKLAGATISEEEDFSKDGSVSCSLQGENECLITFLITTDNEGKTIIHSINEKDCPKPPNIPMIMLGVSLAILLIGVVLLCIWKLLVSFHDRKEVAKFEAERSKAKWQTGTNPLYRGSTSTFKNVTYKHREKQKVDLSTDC
T1 sequence (P06756 31-889 limits assumed): as the sequence (P06756 31-889 limits assumed) above
T1 sequence (P06756 891-1048 partner limits assumed): as the sequence (P06756 891-1048 partner limits assumed) above
T1 sequence (P05106 27-788): as the sequence (P05106 27-788) above

SMILES	IC50 [1]	HT-29 β-6 Selectivity* (β6/β3) [2]	SPRA AIIbB3 Selectivity* IIbIIIa/β3 [3]
O=C(O)C(F)(F)F.O=C(O)CC1(Cc2nc(CCCCNc3ccccn3)no2)CCCC1 [Example 4, [1-({3-[4-(pyridin-2-ylamino)butyl]-1,2,4-oxadiazol-5-yl}methyl)cyclopentyl]-acetic acid]	< 10 µM	+++ (Selectivity Ratio >100 +++)	++ (Selectivity Ratio of 10-100 ++)
CC(C)(CC(=O)O)Cc1nc(CCCc2ccc3c(n2)NCCC3)no1.O=C(O)C(F)(F)F [Example 12, 3,3-dimethyl-4-{3-[3-(5,6,7,8-tetrahydro-1,8-naphthyridin-2-yl)propyl]-1,2,4-oxadiazol-5-yl}butanoic acid]	< 10 µM	+++ (Selectivity Ratio >100 +++)	+++ (Selectivity Ratio >100 +++)
O=C(O)C(F)(F)F.O=C(O)CC(Cc1nc(CCCc2ccc3c(n2)NCCC3)no1)c1ccc2c(c1)OCO2 (stereo not drawn) [Example 16, 3-(1,3-benzodioxol-5-yl)-4-{3-[3-(5,6,7,8-tetrahydro-1,8-naphthyridin-2-yl)propyl]-1,2,4-oxadiazol-5-yl}butanoic acid]	< 10 µM	+++ (Selectivity Ratio >100 +++)	+++ (Selectivity Ratio >100 +++)
O=C(O)CC(Cc1nc(CCCCNc2ccccn2)no1)c1ccc2c(c1)OCO2 (stereo not drawn) [Example 17, 3-(1,3-benzodioxol-5-yl)-4-{3-[4-(pyridin-2-ylamino)butyl]-1,2,4-oxadiazol-5-yl}butanoic acid]	< 10 µM	+++ (Selectivity Ratio >100 +++)	++ (Selectivity Ratio of 10-100 ++)
O=C(O)C(F)(F)F.O=C(O)CC(Cc1nc(CCCc2ccc3c(n2)NCCC3)no1)c1cnc2ccccc2c1 (stereo not drawn) [Example 18, 3-quinolin-3-yl-4-{3-[3-(5,6,7,8-tetrahydro-1,8-naphthyridin-2-yl)propyl]-1,2,4-oxadiazol-5-yl}butanoic acid]	< 10 µM	+++ (Selectivity Ratio >100 +++)	+++ (Selectivity Ratio >100 +++)
O=C(O)C(F)(F)F.O=C(O)CC(Cc1nc(CCCCNc2ccccn2)no1)c1cnc2ccccc2c1 (stereo not drawn) [Example 19, 3-quinolin-3-yl-4-{3-[4-(pyridin-2-ylamino)butyl]-1,2,4-oxadiazol-5-yl}-butanoic acid]	< 10 µM	+++ (Selectivity Ratio >100 +++)	++ (Selectivity Ratio of 10-100 ++)

The next lines start with the values.

IC50 [1]	HT-29 β-6 Selectivity* (β6/β3) [2]	SPRA AIIbB3 Selectivity* IIbIIIa/β3 [3]	SMILES
< 10 µM	+++ (Selectivity Ratio >100 +++)	+++ (Selectivity Ratio >100 +++)	COc1cccc(C(CC(=O)O)Cc2nc(CCCc3ccc4c(n3)NCCC4)no2)c1.O=C(O)C(F)(F)F (stereo not drawn) [Example 20, 3-(3-methoxyphenyl)-4-{3-[3-(5,6,7,8-tetrahydro-1,8-naphthyridin-2-yl)propyl]-1,2,4-oxadiazol-5-yl}butanoic acid]
< 10 µM	+++ (Selectivity Ratio >100 +++)	++ (Selectivity Ratio of 10-100 ++)	COc1cccc(C(CC(=O)O)Cc2nc(CCCCNc3ccccn3)no2)c1.O=C(O)C(F)(F)F (stereo not drawn) [Example 21, 3-(3-methoxyphenyl)-4-{3-[4-(pyridin-2-ylamino)butyl]-1,2,4-oxadiazol-5-yl}butanoic acid]
< 10 µM	+++ (Selectivity Ratio >100 +++)	+++ (Selectivity Ratio >100 +++)	COc1ccc(C(CC(=O)O)Cc2nc(CCCc3ccc4c(n3)NCCC4)no2)cc1.O=C(O)C(F)(F)F (stereo not drawn) [Example 22, 3-(4-methoxyphenyl)-4-{3-[3-(5,6,7,8-tetrahydro-1,8-naphthyridin-2-yl)propyl]-1,2,4-oxadiazol-5-yl}butanoic acid]
< 10 µM	+++ (Selectivity Ratio >100 +++)	++ (Selectivity Ratio of 10-100 ++)	COc1ccc(C(CC(=O)O)Cc2nc(CCCCNc3ccccn3)no2)cc1.O=C(O)C(F)(F)F (stereo not drawn) [Example 23, 3-(4-methoxyphenyl)-4-{3-[4-(pyridin-2-ylamino)butyl]-1,2,4-oxadiazol-5-yl}butanoic acid]
< 10 µM	+++ (Selectivity Ratio >100 +++)	+++ (Selectivity Ratio >100 +++)	O=C(O)C(F)(F)F.O=C(O)CC(Cc1nc(CCCc2ccc3c(n2)NCCC3)no1)c1cccc(F)c1 (stereo not drawn) [Example 24, 3-(3-fluorophenyl)-4-{3-[3-(5,6,7,8-tetrahydro-1,8-naphthyridin-2-yl)propyl]-1,2,4-oxadiazol-5-yl}butanoic acid]
< 10 µM	+++ (Selectivity Ratio >100 +++)	++ (Selectivity Ratio of 10-100 ++)	O=C(O)C(F)(F)F.O=C(O)CC(Cc1nc(CCCCNc2ccccn2)no1)c1cccc(F)c1 (stereo not drawn) [Example 25, 3-(3-fluorophenyl)-4-{3-[4-(pyridin-2-ylamino)butyl]-1,2,4-oxadiazol-5-yl}butanoic acid trifluoroacetate]
< 10 µM	+++ (Selectivity Ratio >100 +++)	+++ (Selectivity Ratio >100 +++)	O=C(O)C(F)(F)F.O=C(O)CC(Cc1nc(CCCc2ccc3c(n2)NCCC3)no1)c1ccc(F)cc1 (stereo not drawn) [Example 26, 3-(4-fluorophenyl)-4-{3-[3-(5,6,7,8-tetrahydro-1,8-naphthyridin-2-yl)propyl]-1,2,4-oxadiazol-5-yl}butanoic acid trifluoroacetate]
